Measurements taken from US7718808B2, “Thiazole derivatives” (Kyowa Hakko Kirin Co., Ltd., priority 2003, dated 2010).

Compared with `O=C(Nc1nc(-c2ccco2)c(C(=O)C2CCOCC2)s1)c1ccc(CN2CCC(O)CC2)cc1` [Compound 481, N-[4-(2-Furyl)-5-(tetrahydropyran-4-ylcarbonyl)thiazol-2-yl]-4-(4-hydroxypiperidinomethyl)benzamide], `O=C(Nc1nc(-c2ccco2)c(C(=O)C2CCOCC2)s1)c1ccc(CN2CCOCC2)cc1` [Compound 482, N-[4-(2-Furyl)-5-(tetrahydropyran-4-ylcarbonyl)thiazol-2-yl]-4-(morpholinomethyl)benzamide] is lower in melting point: 194 to 195 °C for the first, 92 to 96 °C for the second.

Compared with `COc1cccc(C(=O)Nc2nc(-c3ccco3)c(C(=O)C3CCOCC3)s2)c1OC` [Compound 483, N-[4-(2-Furyl)-5-(tetrahydropyran-4-ylcarbonyl)thiazol-2-yl]-2,3-dimethoxybenzamide], `COc1cccc(OC)c1C(=O)Nc1nc(-c2ccco2)c(C(=O)C2CCOCC2)s1` [Compound 486, N-[4-(2-Furyl)-5-(tetrahydropyran-4-ylcarbonyl)thiazol-2-yl]-2,6-dimethoxybenzamide] is lower in melting point: 198 to 200 °C for the first, 152 to 156 °C for the second.

First: COc1ccc(C(=O)Nc2nc(-c3ccco3)c(C(=O)C3CCOCC3)s2)c(OC)c1 [Compound 484, N-[4-(2-Furyl)-5-(tetrahydropyran-4-ylcarbonyl)thiazol-2-yl]-2,4-dimethoxybenzamide]
Second: COc1ccc(OC)c(C(=O)Nc2nc(-c3ccco3)c(C(=O)C3CCOCC3)s2)c1 [Compound 485, N-[4-(2-Furyl)-5-(tetrahydropyran-4-ylcarbonyl)thiazol-2-yl]-2,5-dimethoxybenzamide]
The melting point of the first is higher: 219 to 222 °C for the first, 107 to 110 °C for the second.

First: COc1ccc(C(=O)Nc2nc(-c3ccco3)c(C(=O)C3CCOCC3)s2)cc1OC [Compound 487, N-[4-(2-Furyl)-5-(tetrahydropyran-4-ylcarbonyl)thiazol-2-yl]-3,4-dimethoxybenzamide]
Second: COc1cc(OC)cc(C(=O)Nc2nc(-c3ccco3)c(C(=O)C3CCOCC3)s2)c1 [Compound 488, N-[4-(2-Furyl)-5-(tetrahydropyran-4-ylcarbonyl)thiazol-2-yl]-3,5-dimethoxybenzamide]
The melting point of the first is higher: 289 to 292 °C for the first, 278 to 280 °C for the second.

First: O=C(Nc1nc(-c2ccco2)c(C(=O)C2CCOCC2)s1)c1cccc(F)c1F [Compound 489, 2,3-Difluoro-N-[4-(2-furyl)-5-(tetrahydropyran-4-ylcarbonyl)thiazol-2-yl]benzamide]
Second: O=C(Nc1nc(-c2ccco2)c(C(=O)C2CCOCC2)s1)c1c(F)cccc1F [Compound 492, 2,6-Difluoro-N-[4-(2-furyl)-5-(tetrahydropyran-4-ylcarbonyl)thiazol-2-yl]benzamide]
The melting point of the first is lower: 154 to 160 °C for the first, 168 to 170 °C for the second.

First: O=C(Nc1nc(-c2ccco2)c(C(=O)C2CCOCC2)s1)c1ccc(F)cc1F [Compound 490, 2,4-Difluoro-N-[4-(2-furyl)-5-(tetrahydropyran-4-ylcarbonyl)thiazol-2-yl]benzamide]
Second: O=C(Nc1nc(-c2ccco2)c(C(=O)C2CCOCC2)s1)c1cc(F)ccc1F [Compound 491, 2,5-Difluoro-N-[4-(2-furyl)-5-(tetrahydropyran-4-ylcarbonyl)thiazol-2-yl]benzamide]
The melting point of the first is higher: 213 to 215 °C for the first, 172 to 174 °C for the second.

Compared with `O=C(Nc1nc(-c2ccco2)c(C(=O)C2CCOCC2)s1)c1ccc(F)c(F)c1` [Compound 493, 3,4-Difluoro-N-[4-(2-furyl)-5-(tetrahydropyran-4-ylcarbonyl)thiazol-2-yl]benzamide], `O=C(Nc1nc(-c2ccco2)c(C(=O)C2CCOCC2)s1)c1cc(F)cc(F)c1` [Compound 494, 3,5-Difluoro-N-[4-(2-furyl)-5-(tetrahydropyran-4-ylcarbonyl)thiazol-2-yl]benzamide] is higher in melting point: 208 to 210 °C for the first, 259 to 265 °C for the second.

First: O=C(Nc1nc(-c2ccco2)c(C(=O)C2CCOCC2)s1)c1cccc2c1OCCO2 [Compound 495, N-[4-(2-Furyl)-5-(tetrahydropyran-4-ylcarbonyl)thiazol-2-yl]-1,4-benzodioxane-5-carboxamide]
Second: O=C(Nc1nc(-c2ccco2)c(C(=O)C2CCOCC2)s1)c1cccc2c1OC(F)(F)O2 [Compound 497, 2,2-Difluoro-N-[4-(2-furyl)-5-(tetrahydropyran-4-ylcarbonyl)thiazol-2-yl]-1,3-benzodioxole-4-carboxamide]
The melting point of the first is lower: 188 to 190 °C for the first, 206 to 207 °C for the second.

First: O=C(Nc1nc(-c2ccco2)c(C(=O)C2CCOCC2)s1)c1ccc2c(c1)OCO2 [Compound 496, N-[4-(2-Furyl)-5-(tetrahydropyran-4-ylcarbonyl)thiazol-2-yl]-1,3-benzodioxole-5-carboxamide]
Second: O=C(Nc1nc(-c2ccco2)c(C(=O)C2CCOCC2)s1)c1ccc2c(c1)OC(F)(F)O2 [Compound 498, 2,2-Difluoro-N-[4-(2-furyl)-5-(tetrahydropyran-4-ylcarbonyl)thiazol-2-yl]-1,3-benzodioxole-5-carboxamide]
The melting point of the first is higher: 194 to 196 °C for the first, 124 to 129 °C for the second.

First: O=C(Nc1nc(-c2ccco2)c(C(=O)C2CCOCC2)s1)c1ccnc(Cl)c1 [Compound 499, 2-Chloro-N-(4-(2-furyl)-5-(tetrahydropyran-4-ylcarbonyl)thiazol-2-yl]pyridine-4-carboxamide]
Second: Cc1cc(C(=O)Nc2nc(-c3ccco3)c(C(=O)C3CCOCC3)s2)ccn1 [Compound 500, N-[4-(2-Furyl)-5-(tetrahydropyran-4-ylcarbonyl)thiazol-2-yl]-2-methylpyridine-4-carboxamide]
The melting point of the first is higher: 185 to 186 °C for the first, 169 to 173 °C for the second.

Compared with `O=C(Nc1nc(-c2ccco2)c(C(=O)C2CCOCC2)s1)c1cccnc1` [Compound 501, N-[4-(2-Furyl)-5-(tetrahydropyran-4-ylcarbonyl)thiazol-2-yl]pyridine-3-carboxamide], `Cc1cncc(C(=O)Nc2nc(-c3ccco3)c(C(=O)C3CCOCC3)s2)c1` [Compound 506, N-[4-(2-Furyl)-5-(tetrahydropyran-4-ylcarbonyl)thiazol-2-yl]-5-methylpyridine-3-carboxamide] is higher in melting point: 209 to 212 °C for the first, 239 to 243 °C for the second.

Compared with `O=C(Nc1nc(-c2ccco2)c(C(=O)C2CCOCC2)s1)c1ccc(N2CCOCC2)nc1` [Compound 503, N-[4-(2-Furyl)-5-(tetrahydropyran-4-ylcarbonyl)thiazol-2-yl]-2-morpholinopyridine-5-carboxamide], `O=C(Nc1nc(-c2ccco2)c(C(=O)C2CCOCC2)s1)c1ccc(C(F)(F)F)nc1` [Compound 505, N-[4-(2-Furyl)-5-(tetrahydropyran-4-ylcarbonyl)thiazol-2-yl]-2-(trifluoromethyl)pyridine-5-carboxamide] is higher in melting point: 166 to 170 °C for the first, 217 to 222 °C for the second.

First: O=C(Nc1nc(-c2ccco2)c(C(=O)C2CCOCC2)s1)c1ccccn1 [Compound 507, N-[4-(2-Furyl)-5-(tetrahydropyran-4-ylcarbonyl)thiazol-2-yl]pyridine-2-carboxamide]
Second: O=C(Nc1nc(-c2ccco2)c(C(=O)C2CCOCC2)s1)c1cnccn1 [Compound 509, N-[4-(2-Furyl)-5-(tetrahydropyran-4-ylcarbonyl)thiazol-2-yl]pyrazine-2-carboxamide]
The melting point of the first is lower: 185 to 186 °C for the first, 200 to 205 °C for the second.

Compared with `Cc1cnc(C(=O)Nc2nc(-c3ccco3)c(C(=O)C3CCOCC3)s2)cn1` [Compound 510, N-[4-(2-Furyl)-5-(tetrahydropyran-4-ylcarbonyl)thiazol-2-yl]-5-methylpyrazine-2-carboxamide], `Cn1cc(C(=O)Nc2nc(-c3ccco3)c(C(=O)C3CCOCC3)s2)cn1` [Compound 519, N-[4-(2-Furyl)-5-(tetrahydropyran-4-ylcarbonyl)thiazol-2-yl]-1-methylpyrazole-4-carboxamide] is higher in melting point: 130 to 131 °C for the first, 243 to 247 °C for the second.

Compared with `Cc1ccc(C(=O)Nc2nc(-c3ccco3)c(C(=O)C3CCOCC3)s2)o1` [Compound 512, N-[4-(2-Furyl)-5-(tetrahydropyran-4-ylcarbonyl)thiazol-2-yl]-5-methylfuran-2-carboxamide], `O=C(Nc1nc(-c2ccco2)c(C(=O)C2CCOCC2)s1)c1ccoc1` [Compound 516, N-[4-(2-Furyl)-5-(tetrahydropyran-4-ylcarbonyl)thiazol-2-yl]furan-3-carboxamide] is higher in melting point: 209 to 212 °C for the first, 236 to 238 °C for the second.

Compared with `O=C(Nc1nc(-c2ccco2)c(C(=O)C2CCOCC2)s1)c1cccs1` [Compound 517, N-[4-(2-Furyl)-5-(tetrahydropyran-4-ylcarbonyl)thiazol-2-yl]thiophene-2-carboxamide], `O=C(Nc1nc(-c2ccco2)c(C(=O)C2CCOCC2)s1)c1ccsc1` [Compound 518, N-[4-(2-Furyl)-5-(tetrahydropyran-4-ylcarbonyl)thiazol-2-yl]thiophene-3-carboxamide] is lower in melting point: 231 to 232 °C for the first, 227 to 229 °C for the second.

First: CCn1cc(C(=O)Nc2nc(-c3ccco3)c(C(=O)C3CCOCC3)s2)cn1 [Compound 520, 1-Ethyl-N-[4-(2-furyl)-5-(tetrahydropyran-4-ylcarbonyl)thiazol-2-yl]pyrazole-4-carboxamide]
Second: O=C(Nc1nc(-c2ccco2)c(C(=O)C2CCOCC2)s1)c1cnn(-c2ccccc2)c1 [Compound 521, N-[4-(2-Furyl)-5-(tetrahydropyran-4-ylcarbonyl)thiazol-2-yl]-1-phenylpyrazole-4-carboxamide]
The melting point of the first is lower: 170 to 174 °C for the first, 217 to 220 °C for the second.

Compared with `O=C(c1sc(NC(=O)C2CCCO2)nc1-c1ccco1)C1CCOCC1` (centres unmarked) [Compound 523, N-[4-(2-Furyl)-5-(tetrahydropyran-4-ylcarbonyl)thiazol-2-yl]tetrahydrofuran-2-carboxamide], `O=C(Nc1nc(-c2ccco2)c(C(=O)C2CCOCC2)s1)C1CCOC1` (centres unmarked) [Compound 524, N-[4-(2-Furyl)-5-(tetrahydropyran-4-ylcarbonyl)thiazol-2-yl]tetrahydrofuran-3-carboxamide] is higher in melting point: 115 to 117 °C for the first, 164 to 166 °C for the second.

Compared with `O=C(CC1CCOCC1)Nc1nc(-c2ccco2)c(C(=O)C2CCOCC2)s1` [Compound 525, N-[4-(2-Furyl)-5-(tetrahydropyran-4-ylcarbonyl)thiazol-2-yl]-2-(tetrahydropyran-4-yl)acetamide], `O=C(Cc1ccccc1)Nc1nc(-c2ccco2)c(C(=O)C2CCOCC2)s1` [Compound 526, N-[4-(2-Furyl)-5-(tetrahydropyran-4-ylcarbonyl)thiazol-2-yl]-2-phenylacetamide] is lower in melting point: 206 to 209 °C for the first, 140 to 142 °C for the second.
